Laboratory results from paper PMC9693259, “Synthesis, Self-Assembly in Crystalline Phase and Anti-Tumor Activity of 2-(2-/4-Hydroxybenzylidene)thiazolo[3,2-a]pyrimidines” (Molecules, 2022).
Like-named read-outs stand apart in the source and are kept apart here. Each block holds one molecule with its values, some of them ahead of it.

What was measured:
[1] = tested on: PC3 prostate adenocarcinoma cell line; assay: MTT cytotoxicity test, PC3; assay type: cell-based; conditions: mean ± SD, triplicate
Description: (§1) Formazan crystals were added to 100 µL of DMSO. […] The experiments for all compounds were repeated three times.

[2] = tested on: MCF-7 (human mammary duct adenocarcinoma cell line); assay: MTT cytotoxicity test, MCF-7; assay type: cell-based; conditions: triplicate
Description: as §1

[3] = tested on: HuTu 80 human duodenal adenocarcinoma; assay: MTT cytotoxicity test, HuTu 80; assay type: cell-based; conditions: triplicate
Description: as §1

[4] = tested on: M-HeLa clone 11 (epithelioid carcinoma of the cervix, subline HeLa, clone M-HeLa); assay: MTT cytotoxicity test, M-HeLa; assay type: cell-based; conditions: mean ± SD, triplicate
Description: as §1

[5] = MTT cytotoxicity test, normal Chang liver cells; conditions: human
Description: (§2) For the experiments, tumor cell cultures of M-HeLa clone 11 (epithelioid carcinoma of the cervix, subline HeLa., clone M-HeLa), HuTu 80, human duodenal adenocarcinoma, MCF7—human breast adenocarcinoma (pleural fluid) collected from Institute of Cytology, Russian Academy of Sciences (St. Petersburg, Russia); PC3—prostate adenocarcinoma cell line collected from ATCC (American Type Cell Collection, Manassas, VA, USA; CRL 1435; human liver cells (Chang liver) and the Research Institute of Virology of the Russian Academy of Medical Sciences (Moscow, Russia) were used for cytotoxicity analysis.
(§3) The cytotoxic effect on cells was determined using the colorimetric method of cell proliferation—the MTT test. NADP-H-dependent cellular oxidoreductase enzymes can, under certain conditions, reflect the number of viable cells. These enzymes are able to reduce the tetrazolium dye (MTT)—3-(4,5-dimethylthiazol-2-yl)-2,5-diphenyl-tetrazolium bromide to insoluble blue-violet formazan, which crystallizes inside the cell. The amount of formazan formed is proportional to the number of cells with active metabolism. Cells were seeded on a 96-well Nunc plate at a concentration of 5 × 10^3 cells per well in a volume of 100 μL of medium and cultured in a CO2 incubator at 37 °C until a monolayer was formed. […] After 48 h of incubation of the cells with the tested compounds, the nutrient medium was removed from the plates and 100 µL of the nutrient medium without serum with MTT at a concentration of 0.5 mg/mL was added and incubated for 4 h at 37 °C. Formazan crystals were added to 100 µL of DMSO. Optical density was recorded at 540 nm on an Invitrologic microplate reader (Novosibirsk, Russia). The experiments for all compounds were repeated three times.
(§4) Statistical analysis was performed using the Mann–Whitney test (p < 0.05). Tabular and graphical data contain the averages and standard error.

[6] = tested on: Chang liver (HeLa derivative) human liver cells; assay: MTT cytotoxicity test, normal Chang liver cells; conditions: 48 h, read-out: IC50 Chang Liver (HeLa), normal cell line
Description: as §2, §3, §4

[7] = tested on: Chk1, Chk2, H2AX, MDM2, p53, p21, ATR in M-HeLa cells; assay: Multiplex analysis of DNA damage/genotoxicity markers (MILLIPLEX MAP 7-plex, Luminex); assay type: cell-based; conditions: IC50/2 and IC50, 24 h
Description: Classical methods of assessing genotoxicity reveal mutations associated with increased or loss of function, but are not informative enough in studying the molecular mechanisms of DNA damage. The MILLIPLEX® MAP 7-plex DNA Damage/Genotoxicity Magnetic Bead kit allows to detect the expression and phosphorylation of a number of proteins involved in DNA damage, providing a faster and more accurate assessment of the state of the cell after exposure to genotoxic compounds. The 7-plex DNA Damage/Genotoxicity Magnetic Bead Kit is used to detect changes in phosphorylated Chk1 (Ser345), Chk2 (Thr68), H2AX (Ser139) and p53 (Ser15), as well as total protein levels of ATR, MDM2, and p21 in cellular lysates using the Luminex® system. […] The obtained results characterize the effect of the leading compound 7 on the DNA of M-HeLa cells at concentrations of IC50/2 and IC50. […] The fluorescence intensity of OTR markers also increases relative to the reference sample. […]
The studies were carried out according to the standard protocol. […] A total of 20 μg of total protein of each lysate diluted in MILLIPLEX® MAP Assay Buffer 2 was analyzed according to the analysis protocol (the lysate was incubated at 4 °C overnight). The mean fluorescence intensity (MFI) was detected using Luminex® system, MERCK, Kenilworth, NJ, USA.

[8] = tested on: anti-apoptotic Bcl protein; set-up: method as in PMID 20405848; conditions: cited from earlier work
[9] = set-up: method as in doi:10.5935/0103-5053.20160038; conditions: due to optimal hydrophilicity/lipophilicity; cited from earlier work
[10] = tested on: MCF-7 breast cancer cell line; set-up: method as in PMID 25096298; conditions: cited from earlier work
[11] = lead compounds, read-out: IC50 PC3 (Table 2)
[12] = Homo sapiens, MCF7, 48 h, mean ± SD, read-out: IC50 MCF-7
[13] = Homo sapiens, MCF7, mean ± SD, lead compounds, read-out: IC50 MCF-7 (Table 2)
[14] = Homo sapiens, HuTu80, 48 h, mean ± SD, read-out: IC50 HuTu 80
[15] = Homo sapiens, HuTu80, mean ± SD, lead compounds, read-out: IC50 HuTu 80 (Table 2)
[16] = Homo sapiens, M-HeLa, 48 h, read-out: IC50 M-HeLa
[17] = Homo sapiens, M-HeLa, lead compounds, read-out: IC50 M-HeLa (Table 2)

melting point: 201 to 203 °C
Molecule: CCOC(=O)C1=C(C)N=c2s/c(=C\c3ccccc3O)c(=O)n2C1c1ccc(Br)cc1 (stereo not drawn) [Compound 12, Ethyl (Z)-5-(4-bromophenyl)-2-(2-hydroxybenzylidene)-7-methyl-3-oxo-2,3-dihydro-5H-thiazolo[3,2-a]pyrimidine-6-carboxylate]
IC50 ([1]; 48 h, read-out: IC50 PC3): 28.1 ± 2.2 µM
IC50 [1, 11]: 28.1 ± 2.2 µM
IC50 [2, 12]: 22.3 ± 1.4 µM
IC50 [2, 13]: 52.7 ± 4.2 µM
IC50 [3, 14]: 23.7 ± 1.8 µM
IC50 [3, 15]: 23.7 ± 1.8 µM
IC50 [4, 16]: 18.8 ± 1.5 µM
IC50 [4, 17]: 18.8 ± 1.5 µM
IC50 at 48 h [5]: 78.2 ± 6.2 µM
IC50 ([6]; Homo sapiens, HeLa): 78.2 ± 6.2 µM

Molecule: CCOC(=O)C1=C(C)N=c2s/c(=C\c3ccccc3O)c(=O)n2C1c1ccccc1 (stereo not drawn) [Compound 7, ethyl (Z)-2-(2-hydroxybenzylidene)-7-methyl-3-oxo-5-phenyl-2,3-dihydro-5H-thiazolo[3,2-a]pyrimidine-6-carboxylate]
IC50 ([1]; 48 h, read-out: IC50 PC3): 77.6 ± 6.7 µM
IC50 [1, 11]: 77.6 ± 6.7 µM
IC50 [2, 12]: 43.7 ± 3.5 µM
IC50 [2, 13]: 43.7 ± 3.5 µM
IC50 [3, 14]: 10.2 ± 0.8 µM
IC50 [3, 15]: 10 ± 0.8 µM
IC50 [4, 16]: 11.9 ± 0.9 µM
IC50 [4, 17]: 11.9 ± 0.9 µM
IC50 at 48 h [5]: 75 ± 5.7 µM
IC50 ([6]; Homo sapiens, HeLa): 75 ± 5.7 µM
average fluorescence intensity of the markers Chk1, Chk2, H2AX, MDM2, p53, and p21 ([7]; compared to untreated control): significantly increase
fluorescence intensity of OTR markers ([7]; relative to the reference sample): increases

melting point: 190 to 192 °C
Molecule: CCOC(=O)C1=C(C)N=c2s/c(=C\c3ccc(O)cc3)c(=O)n2C1c1cccc([N+](=O)[O-])c1 (stereo not drawn) [Compound 15, Ethyl (Z)-2-(4-hydroxybenzylidene)-7-methyl-5-(3-nitrophenyl)-3-oxo-2,3-dihydro-5H-thiazolo[3,2-a]pyrimidine-6-carboxylate]
IC50 ([1]; 48 h, read-out: IC50 PC3): 70 ± 5.5 µM
IC50 [2, 12]: > 100 µM
IC50 [3, 14]: 74.5 ± 5.7 µM
IC50 [4, 16]: > 100 µM
IC50 ([6]; Homo sapiens, HeLa): 91.4 ± 7.2 µM

melting point: 167 to 169 °C
Molecule: COc1ccccc1C1C(C(=O)c2ccccc2)=C(C)N=c2s/c(=C\c3ccccc3O)c(=O)n21 (stereo not drawn) [Compound 11, (Z)-6-benzoyl-2-(2-hydroxybenzylidene)-5-(2-methoxyphenyl)-7-methyl-5H-thiazolo[3,2-a]pyrimidin-3(2H)-one]
IC50 ([1]; 48 h, read-out: IC50 PC3): 54 ± 4.3 µM
IC50 [2, 12]: 81 ± 7.4 µM
IC50 [3, 14]: 39 ± 3.1 µM
IC50 [4, 16]: 56.4 ± 4.5 µM
IC50 ([6]; Homo sapiens, HeLa): 64 ± 5.1 µM

Molecule: CCOC(=O)C1=C(C)N=c2s/c(=C\c3ccc(O)cc3)c(=O)n2C1c1ccccc1 (stereo not drawn) [Compound 13, ethyl (Z)-2-(4-hydroxybenzylidene)-7-methyl-3-oxo-5-phenyl-2,3-dihydro-5H-thiazolo[3,2-a]pyrimidine-6-carboxylate]
IC50 ([1]; 48 h, read-out: IC50 PC3): 54 ± 4.3 µM
IC50 [2, 12]: > 100 µM
IC50 [3, 14]: 43.3 ± 3.5 µM
IC50 [4, 16]: 70 ± 5.5 µM
IC50 ([6]; Homo sapiens, HeLa): 86.1 ± 6.8 µM

Molecule: CNC(=O)c1cc(Oc2ccc(NC(=O)Nc3ccc(Cl)c(C(F)(F)F)c3)cc2)ccn1 [Sorafenib, reference compound]
IC50 ([1]; 48 h, read-out: IC50 PC3): 12.7 ± 1.1 µM
IC50 [1, 11]: 27.5 ± 2.2 µM
IC50 [2, 12]: 27.5 ± 2.2 µM
IC50 [2, 13]: 27.5 ± 2.2 µM
IC50 [3, 14]: 13 ± 1.2 µM
IC50 [3, 15]: 13 ± 1.2 µM
IC50 [4, 16]: 25 ± 1.8 µM
IC50 [4, 17]: 25 ± 1.8 µM
IC50 at 48 h [5]: 21.7 ± 1.7 µM
IC50 ([6]; Homo sapiens, HeLa): 21.7 ± 1.7 µM

melting point: 187 to 189 °C
Molecule: CCOC(=O)C1=C(C)N=c2s/c(=C\c3ccccc3O)c(=O)n2C1c1cccc([N+](=O)[O-])c1 (stereo not drawn) [Compound 10, Ethyl (Z)-2-(2-hydroxybenzylidene)-7-methyl-5-(3-nitrophenyl)-3-oxo-2,3-dihydro-5H-thiazolo[3,2-a]pyrimidine-6-carboxylate]
IC50 ([1]; 48 h, read-out: IC50 PC3): 56 ± 4.4 µM
IC50 [1, 11]: 56 ± 4.4 µM
IC50 [2, 12]: 56 ± 4.5 µM
IC50 [2, 13]: 56 ± 4.5 µM
IC50 [3, 14]: 60 ± 4.7 µM
IC50 [3, 15]: 14.6 ± 0.3 µM
IC50 [4, 16]: 55 ± 4.4 µM
IC50 [4, 17]: 55 ± 4.4 µM
IC50 at 48 h [5]: 88 ± 7 µM
IC50 ([6]; Homo sapiens, HeLa): 88 ± 7 µM

melting point: 207 to 209 °C
Molecule: CCOC(=O)C1=C(C)N=c2s/c(=C\c3ccc(O)cc3)c(=O)n2C1c1ccc(Br)cc1 (stereo not drawn) [Compound 14, Ethyl (Z)-5-(4-bromophenyl)-2-(4-hydroxybenzylidene)-7-methyl-3-oxo-2,3-dihydro-5H-thiazolo[3,2-a]pyrimidine-6-carboxylate]
IC50 ([1]; 48 h, read-out: IC50 PC3): 49.3 ± 3.9 µM
IC50 [2, 12]: 53.3 ± 4.2 µM
IC50 [3, 14]: 32.1 ± 2.5 µM
IC50 [4, 16]: 31 ± 2.4 µM
IC50 ([6]; Homo sapiens, HeLa): 53.2 ± 4.2 µM

Molecule: ethyl (Z)-2-(2-hydroxybenzylidene)-5-(4-methoxyphenyl)-7-methyl-3-oxo-2,3-dihydro-5H-thiazolo[3,2-a]pyrimidine-6-carboxylate [Compound 8]
IC50 ([1]; 48 h, read-out: IC50 PC3): 93.7 ± 8.5 µM
IC50 ([2]; 48 h, mean ± SD, read-out: IC50 MCF-7): 93.3 ± 8.2 µM
IC50 ([3]; 48 h, mean ± SD, read-out: IC50 HuTu 80): 85.9 ± 8 µM
IC50 ([4]; 48 h, read-out: IC50 M-HeLa): 90 ± 8.3 µM
IC50 ([6]; MTT, mean ± SD, triplicate): 56.4 ± 4.5 µM

Molecule: COc1ccc(C2C3=C(N=c4s/c(=C\c5c[nH]c6ccc(Br)cc56)c(=O)n42)c2ccc(OC)cc2CC3)cc1 (stereo not drawn) [Compound 3]
IC50 [8]: 3.4 µM

Molecule: COc1ccc2c(c1)CCC1=C2N=c2s/c(=C\c3c[nH]c4ccc(Br)cc34)c(=O)n2C1c1ccc(Cl)cc1 (stereo not drawn) [Compound 1]
absorption ability in the gastrointestinal tract [9]: high absorption ability
cytotoxicity efficiency relative to doxorubicin [10]: 1.15 times
